Measured values: US12643903B2, “Bifunctional compounds for degradation of EGFR and related methods of use” (BeiGene, Ltd., priority 2020, dated 2026)

Key:
EGFR [1] = target: T1, EGFR (Homo sapiens, UniProt P00533, DEL746-750); test: Cell Degradation 2: EGFR degradation in HCC827 cells, HTRF assay; type: cell-based; settings: 16 h treatment, EGFR degradation by HTRF
T1 construct: endogenous in cells; host or cells: HCC827
Protocol: (§1) After 16 h treatment, add 100 μl 1×lysis buffer to each well; seal the plate and incubate 1 hour at room temperature on a plate shaker; Once the cells are lysed, 16 μl diluted (2 μL to 14 μl 1× lysisi buffer) cell lysate are transferred to a PE 384-well HTRF detection plate; 4 μL of pre-mixed HTRF antibodies are added to each well; Cover the plate with a plate sealer, spin 1000 rpm for 1 min, Incubate overnight at room temperature; Read on BMG PheraStar with HTRF protocol (337 nm-665 nm-620 nm).
(§2) The IC50 (DC50) value of a compound can be obtained by fitting the following equation Y=Bottom+(TOP−Bottom)/(1+((IC50/X)^hillslope))
(§3) Wherein, X and Y are known values, and IC50, Hillslope, Top and Bottom are the parameters obtained by fitting with software. Y is the inhibition percentage (calculated from the equation), X is the concentration of the compound; IC50 is the concentration of the compound when the 50% inhibition is reached. The smaller the IC50 value is, the stronger the inhibitory ability of the compound is. Vice versa, the higher the IC50 value is, the weaker the ability the inhibitory ability of the compound is; Hillslope represents the slope of the fitted curve, generally around 1*; Bottom represents the minimum value of the curve obtained by data fitting, which is generally 0%±20%; Top represents the maximum value of the curve obtained by data fitting, which is generally 100%±20%. The experimental data were fitted by calculating and analyzing with Dotmatics data analysis software.

EGFR [2] = target: T2, EGFR (Homo sapiens, UniProt P00533, L858R/T790M); test: Cell Degradation 1: EGFR degradation in H1975 cells, HTRF assay; type: cell-based; settings: 16 h treatment, EGFR degradation by HTRF
T2 construct: endogenous in cells; host or cells: H1975
Protocol: as §1, with “16” for “16 μl diluted (2”, “of” for “to 14 μl 1× lysisi buffer)”
as §2, §3

T2 sequence (P00533 25-1210 T790M/L858R): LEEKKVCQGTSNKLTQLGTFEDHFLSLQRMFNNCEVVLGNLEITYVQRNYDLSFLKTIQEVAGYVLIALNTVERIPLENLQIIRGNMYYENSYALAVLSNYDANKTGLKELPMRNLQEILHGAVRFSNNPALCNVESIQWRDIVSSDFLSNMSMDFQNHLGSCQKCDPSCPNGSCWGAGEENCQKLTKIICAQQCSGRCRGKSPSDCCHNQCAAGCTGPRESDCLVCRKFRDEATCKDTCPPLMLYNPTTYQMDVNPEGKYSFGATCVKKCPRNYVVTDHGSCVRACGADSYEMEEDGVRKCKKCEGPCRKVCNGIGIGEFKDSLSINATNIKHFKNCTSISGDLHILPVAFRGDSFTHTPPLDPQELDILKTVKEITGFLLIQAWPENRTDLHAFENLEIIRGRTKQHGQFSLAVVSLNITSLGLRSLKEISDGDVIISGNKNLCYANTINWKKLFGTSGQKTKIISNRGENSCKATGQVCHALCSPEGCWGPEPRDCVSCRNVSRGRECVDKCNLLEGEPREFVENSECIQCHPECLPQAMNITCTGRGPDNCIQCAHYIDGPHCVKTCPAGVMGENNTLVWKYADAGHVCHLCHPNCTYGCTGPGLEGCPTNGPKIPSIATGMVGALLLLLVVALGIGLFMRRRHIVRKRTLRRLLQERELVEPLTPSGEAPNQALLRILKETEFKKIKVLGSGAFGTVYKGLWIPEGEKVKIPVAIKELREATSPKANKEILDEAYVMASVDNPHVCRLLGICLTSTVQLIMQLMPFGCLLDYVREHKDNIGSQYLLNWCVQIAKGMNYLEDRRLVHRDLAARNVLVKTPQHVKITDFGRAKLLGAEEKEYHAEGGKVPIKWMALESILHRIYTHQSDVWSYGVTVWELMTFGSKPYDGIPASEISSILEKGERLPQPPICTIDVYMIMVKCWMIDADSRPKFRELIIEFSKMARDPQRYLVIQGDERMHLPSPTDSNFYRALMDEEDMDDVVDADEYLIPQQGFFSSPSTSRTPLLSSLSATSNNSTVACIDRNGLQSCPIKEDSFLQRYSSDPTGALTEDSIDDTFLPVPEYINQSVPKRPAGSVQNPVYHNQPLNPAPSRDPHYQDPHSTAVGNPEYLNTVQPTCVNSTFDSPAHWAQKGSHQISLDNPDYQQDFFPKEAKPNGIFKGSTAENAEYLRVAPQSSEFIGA
T1 sequence (P00533 with tags, fused parts or gaps DEL746-750): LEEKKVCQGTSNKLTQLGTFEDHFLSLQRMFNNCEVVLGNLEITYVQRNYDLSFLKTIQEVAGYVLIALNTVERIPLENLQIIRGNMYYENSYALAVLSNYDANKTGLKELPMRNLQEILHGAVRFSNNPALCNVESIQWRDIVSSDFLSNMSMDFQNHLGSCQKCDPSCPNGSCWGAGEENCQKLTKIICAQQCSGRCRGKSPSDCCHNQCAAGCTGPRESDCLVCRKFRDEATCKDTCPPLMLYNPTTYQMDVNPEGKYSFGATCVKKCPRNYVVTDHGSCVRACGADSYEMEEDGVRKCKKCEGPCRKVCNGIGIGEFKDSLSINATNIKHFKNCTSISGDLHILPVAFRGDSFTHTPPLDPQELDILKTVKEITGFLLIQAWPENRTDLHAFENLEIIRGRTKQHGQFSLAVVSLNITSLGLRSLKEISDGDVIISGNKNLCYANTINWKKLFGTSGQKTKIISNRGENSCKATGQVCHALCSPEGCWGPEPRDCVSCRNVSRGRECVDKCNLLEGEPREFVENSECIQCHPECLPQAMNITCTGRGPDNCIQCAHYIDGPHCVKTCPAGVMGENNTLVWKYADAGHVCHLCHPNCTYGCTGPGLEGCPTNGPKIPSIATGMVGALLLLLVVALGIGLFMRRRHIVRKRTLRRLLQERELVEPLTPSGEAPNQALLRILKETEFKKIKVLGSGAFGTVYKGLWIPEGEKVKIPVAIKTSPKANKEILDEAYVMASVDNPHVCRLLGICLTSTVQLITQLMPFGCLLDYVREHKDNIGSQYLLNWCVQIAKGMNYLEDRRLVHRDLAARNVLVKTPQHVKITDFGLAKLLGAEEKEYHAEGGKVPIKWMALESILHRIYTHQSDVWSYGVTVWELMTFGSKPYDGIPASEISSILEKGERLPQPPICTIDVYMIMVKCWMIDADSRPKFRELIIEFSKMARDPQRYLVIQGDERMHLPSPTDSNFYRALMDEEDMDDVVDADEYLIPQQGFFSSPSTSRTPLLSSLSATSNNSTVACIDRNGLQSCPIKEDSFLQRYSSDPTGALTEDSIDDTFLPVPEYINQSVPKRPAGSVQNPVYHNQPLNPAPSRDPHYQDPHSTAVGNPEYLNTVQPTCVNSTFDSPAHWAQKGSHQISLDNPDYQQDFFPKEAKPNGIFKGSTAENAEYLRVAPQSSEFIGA
T1 sequence (Q96SW2 whole entry partner): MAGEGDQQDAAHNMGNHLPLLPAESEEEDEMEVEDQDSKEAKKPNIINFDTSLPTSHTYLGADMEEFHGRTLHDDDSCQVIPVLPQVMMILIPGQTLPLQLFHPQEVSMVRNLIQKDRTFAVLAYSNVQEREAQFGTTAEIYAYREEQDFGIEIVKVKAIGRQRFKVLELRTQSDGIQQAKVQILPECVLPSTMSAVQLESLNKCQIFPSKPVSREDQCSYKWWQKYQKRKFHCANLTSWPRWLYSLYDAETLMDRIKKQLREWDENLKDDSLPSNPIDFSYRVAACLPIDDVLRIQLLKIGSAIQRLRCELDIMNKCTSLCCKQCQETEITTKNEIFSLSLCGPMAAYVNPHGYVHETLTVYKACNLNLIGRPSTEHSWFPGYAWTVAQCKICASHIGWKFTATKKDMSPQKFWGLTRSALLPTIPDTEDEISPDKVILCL

| DC50 (EGFR [1]) | DC50 (EGFR [2]) | SMILES |
| --- | --- | --- |
| 0.0326 µM | 0.0337 µM | CS(=O)(=O)N1CCc2cccc(Nc3nc(Nc4ccc(N5CCC(N6CCN(CC7CCN(c8ccc9c(c8)C(=O)N(C8CCC(=O)NC8=O)C9=O)CC7)CC6)CC5)c(F)c4)nc4[nH]ccc34)c21 (stereo not drawn) [Example 16, 2-(2,6-dioxopiperidin-3-yl)-5-(4-((4-(1-(2-fluoro-4-((4-((1-(methylsulfonyl)indolin-7-yl)amino)-7H-pyrrolo[2,3-d]pyrimidin-2-yl)amino)phenyl)piperidin-4-yl)piperazin-1-yl)methyl)piperidin-1-yl)isoindoline-1,3-dione] |
| 0.0308 µM | 0.0096 µM | CS(=O)(=O)N1CCc2cccc(Nc3nc(Nc4ccc(N5CCC(N6CCN(CCC7CCN(c8ccc9c(c8)C(=O)N(C8CCC(=O)NC8=O)C9=O)CC7)CC6)CC5)c(F)c4)nc4[nH]ccc34)c21 (stereo not drawn) [Example 17, 2-(2,6-dioxopiperidin-3-yl)-5-(4-(2-(4-(1-(2-fluoro-4-((4-((1-(methylsulfonyl)indolin-7-yl)amino)-7H-pyrrolo[2,3-d]pyrimidin-2-yl)amino)phenyl)piperidin-4-yl)piperazin-1-yl)ethyl)piperidin-1-yl)isoindoline-1,3-dione] |
| > 10 µM | 0.0047 µM | COc1cc(Nc2nc(Nc3cccc4c3N(S(C)(=O)=O)CC4)c3cc[nH]c3n2)ccc1N1CCC(N2CCN(C(=O)[C@H]3CCN(c4ccc5c(c4)C(=O)N(C4CCC(=O)NC4=O)C5=O)C3)CC2)CC1 (stereo partly drawn) [Example 74, 2-(2,6-dioxopiperidin-3-yl)-5-((S)-3-(4-(1-(2-methoxy-4-((4-((1-(methylsulfonyl)indolin-7-yl)amino)-7H-pyrrolo[2,3-d]pyrimidin-2-yl)amino)phenyl)piperidin-4-yl)piperazine-1-carbonyl)pyrrolidin-1-yl)isoindoline-1,3-dione] |
| 0.0111 µM | 0.0491 µM | COc1cc(N2CCC(N3CCN(C(=O)C4CCN(CC5CCN(c6ccc7c(c6)C(=O)N(C6CCC(=O)NC6=O)C7=O)CC5)CC4)CC3)CC2)c(C)cc1Nc1ncc(Br)c(Nc2cccc3c2N(S(C)(=O)=O)CC3)n1 (stereo not drawn) [Example 43, 5-(4-((4-(4-(1-(4-((5-bromo-4-((1-(methylsulfonyl)indolin-7-yl)amino)pyrimidin-2-yl)amino)-5-methoxy-2-methylphenyl)piperidin-4-yl)piperazine-1-carbonyl)piperidin-1-yl)methyl)piperidin-1-yl)-2-(2,6-dioxopiperidin-3-yl)isoindoline-1,3-dione] |
| 0.138 µM | > 10 µM | CN(CCC1CCN(c2ccc(C3CCC(=O)NC3=O)cc2)CC1)C1CCN(c2ccc(Nc3ncc(Cl)c(Nc4cccc5c4N(S(C)(=O)=O)CC5)n3)c3c2CCO3)CC1 (stereo not drawn) [Example 49, 3-(4-(4-(2-((1-(7-((5-chloro-4-((1-(methylsulfonyl)indolin-7-yl)amino)pyrimidin-2-yl)amino)-2,3-dihydrobenzofuran-4-yl)piperidin-4-yl)(methyl)amino)ethyl)piperidin-1-yl)phenyl)piperidine-2,6-dione] |
| > 10 µM | 0.0039 µM | CS(=O)(=O)N1CCc2cccc(Nc3nc(Nc4ccc(N5CCC(N6CCN(C(=O)[C@H]7CCN(c8ccc9c(c8)C(=O)N(C8CCC(=O)NC8=O)C9=O)C7)CC6)CC5)c(F)c4)nc4[nH]ccc34)c21 (stereo partly drawn) [Example 63, 2-(2,6-dioxopiperidin-3-yl)-5-((S)-3-(4-(1-(2-fluoro-4-((4-((1-(methylsulfonyl)indolin-7-yl)amino)-7H-pyrrolo[2,3-d]pyrimidin-2-yl)amino)phenyl)piperidin-4-yl)piperazine-1-carbonyl)pyrrolidin-1-yl)isoindoline-1,3-dione] |

Continued, compound first:

| SMILES | DC50 (EGFR [1]) | DC50 (EGFR [2]) |
| --- | --- | --- |
| CS(=O)(=O)N1CCc2cccc(Nc3nc(Nc4ccc(N5CCC(N6CCN(C(=O)CC7CCN(c8ccc(C9CCC(=O)NC9=O)cc8)CC7)CC6)CC5)c(F)c4)nc4[nH]ccc34)c21 (stereo not drawn) [Example 12, 3-(4-(4-(2-(4-(1-(2-fluoro-4-((4-((1-(methylsulfonyl)indolin-7-yl)amino)-7H-pyrrolo[2,3-d]pyrimidin-2-yl)amino)phenyl)piperidin-4-yl)piperazin-1-yl)-2-oxoethyl)piperidin-1-yl)phenyl)piperidine-2,6-dione] | 0.0335 µM | 0.0124 µM |
| CN(CCCC1CN(c2ccc3c(c2)C(=O)N(C2CCC(=O)NC2=O)C3=O)C1)C1CCN(c2ccc(Nc3ncc(Cl)c(Nc4cccc5c4N(S(C)(=O)=O)CC5)n3)c3c2CCO3)CC1 (stereo not drawn) [Example 50, 5-(3-(3-((1-(7-((5-chloro-4-((1-(methylsulfonyl)indolin-7-yl)amino)pyrimidin-2-yl)amino)-2,3-dihydrobenzofuran-4-yl)piperidin-4-yl)(methyl)amino)propyl)azetidin-1-yl)-2-(2,6-dioxopiperidin-3-yl)isoindoline-1,3-dione] | 0.0369 µM | 0.0075 µM |
| CS(=O)(=O)N1CCc2cccc(Nc3nc(Nc4ccc(N5CCC(N6CCN(CCC7CCN(c8ccc(C9CCC(=O)NC9=O)c(F)c8)CC7)CC6)CC5)c(F)c4)nc4[nH]ccc34)c21 (stereo not drawn) [Example 9, 3-(2-fluoro-4-(4-(2-(4-(1-(2-fluoro-4-((4-((1-(methylsulfonyl)indolin-7-yl)amino)-7H-pyrrolo[2,3-d]pyrimidin-2-yl)amino)phenyl)piperidin-4-yl)piperazin-1-yl)ethyl)piperidin-1-yl)phenyl)piperidine-2,6-dione] | 0.0167 µM | 0.0191 µM |
| CS(=O)(=O)N1CCc2cccc(Nc3nc(Nc4ccc(N5CCC(N6CCN(CC[C@@H]7CCN(c8ccc(C9CCC(=O)NC9=O)cc8)C7)CC6)CC5)c(F)c4)nc4[nH]ccc34)c21 (stereo partly drawn) [Example 64, 3-(4-((R)-3-(2-(4-(1-(2-fluoro-4-((4-((1-(methylsulfonyl)indolin-7-yl)amino)-7H-pyrrolo[2,3-d]pyrimidin-2-yl)amino)phenyl)piperidin-4-yl)piperazin-1-yl)ethyl)pyrrolidin-1-yl)phenyl)piperidine-2,6-dione] | 0.156 µM | 0.0061 µM |
| COc1cc(CCN2CCN(C3CCN(c4ccc(Nc5nc(Nc6cccc7c6N(S(C)(=O)=O)CC7)c6cc[nH]c6n5)cc4F)CC3)CC2)ccc1C1CCC(=O)NC1=O (stereo not drawn) [Example 2, 3-(4-(2-(4-(1-(2-fluoro-4-((4-((1-(methylsulfonyl)indolin-7-yl)amino)-7H-pyrrolo[2,3-d]pyrimidin-2-yl)amino)phenyl)piperidin-4-yl)piperazin-1-yl)ethyl)-2-methoxyphenyl)piperidine-2,6-dione] | 0.0334 µM | 0.0369 µM |
| COc1cc(N2CCC(N3CCN(CCCC4CN(c5ccc6c(c5)C(=O)N(C5CCC(=O)NC5=O)C6=O)C4)CC3)CC2)c(C)cc1Nc1ncc(Br)c(Nc2cccc3c2N(S(C)(=O)=O)CC3)n1 (stereo not drawn) [Example 44, 5-(3-(3-(4-(1-(4-((5-bromo-4-((1-(methylsulfonyl)indolin-7-yl)amino)pyrimidin-2-yl)amino)-5-methoxy-2-methylphenyl)piperidin-4-yl)piperazin-1-yl)propyl)azetidin-1-yl)-2-(2,6-dioxopiperidin-3-yl)isoindoline-1,3-done] | 0.0046 µM | 0.0109 µM |
| CS(=O)(=O)N1CCc2cccc(Nc3nc(Nc4ccc(N5CCC(N6CCN(CCC7CCN(c8ccc9c(c8)C(=O)N(C8CCC(=O)NC8=O)C9=O)CC7)CC6)CC5)c5c4OCC5)ncc3Cl)c21 (stereo not drawn) [Example 52, 5-(4-(2-(4-(1-(7-((5-chloro-4-((1-(methylsulfonyl)indolin-7-yl)amino)pyrimidin-2-yl)amino)-2,3-dihydrobenzofuran-4-yl)piperidin-4-yl)piperazin-1-yl)ethyl)piperidin-1-yl)-2-(2,6-dioxopiperidin-3-yl)isoindoline-1,3-dione] | 0.0035 µM | 0.007 µM |
| CN(CCc1ccc(C2CCC(=O)NC2=O)c(F)c1)C1CCN(c2ccc(Nc3ncc(Cl)c(Nc4cccc5c4N(S(C)(=O)=O)CC5)n3)c3c2CCO3)CC1 (stereo not drawn) [Example 48, 3-(4-(2-((1-(7-((5-chloro-4-((1-(methylsulfonyl)indolin-7-yl)amino)pyrimidin-2-yl)amino)-2,3-dihydrobenzofuran-4-yl)piperidin-4-yl)(methyl)amino)ethyl)-2-fluorophenyl)piperidine-2,6-dione] | 0.0518 µM | > 10 µM |
| CS(=O)(=O)N1CCc2cccc(Nc3nc(Nc4ccc(N5CCC(N6CCN(CCC7CCN(c8ccc(C9CCC(=O)NC9=O)c(F)c8)CC7)CC6)CC5)c5c4OCC5)ncc3Cl)c21 (stereo not drawn) [Example 51, 3-(4-(4-(2-(4-(1-(7-((5-chloro-4-((1-(methylsulfonyl)indolin-7-yl)amino)pyrimidin-2-yl)amino)-2,3-dihydrobenzofuran-4-yl)piperidin-4-yl)piperazin-1-yl)ethyl)piperidin-1-yl)-2-fluorophenyl)piperidine-2,6-dione] | 0.0124 µM | 0.0195 µM |
